Entries after “also recorded” stand apart in the source; their conditions may differ.
Key:
[1] = tested on: bortezomib resistant PSMB5 mutant cell lines; assay: XTT cell viability assay of bortezomib resistant PSMB5 mutant clones (AN3-12 mouse haploid embryonic stem cells) treated with proteasome inhibitors; format: cell-based
Description: AN3-12 mouse haploid embryonic stem cells were cultured as previously described (Elling et al., 2011). In brief, the cells were grown in DMEM high glucose (Sigma-Aldrich, St. Louis, Mo.) supplemented with 15% fetal bovine serum, penicillin/streptomycin, glutamine, non-essential amino acids, sodium pyruvate (all Thermo Fisher Scientific, Waltham, Mass.), β-mercaptoethanol, and Leukemia-Inhibitor Factor (LIF) (both Merck Millipore, Darmstadt, Germany) on non-coated tissue culture plates.
Chemical mutagenesis was performed as previously described (Horn et al., 2011). In brief, AN3-12 cells were transferred to 15 ml tubes, incubated with 0.1 mg/ml ENU for two hours at room temperature, washed five times with LIF-free medium, and plated on culture dishes. The cells were selected with 25 nM Bortezomib (Selleckchem, Houston, Tex.) for three weeks, starting 24 h after mutagenesis. Resistant clones were transferred to 24-well plates and the Psmb5 locus was analyzed. DNA was extracted (DNA extraction solution, Epicentre, Biotechnologies, Madison, Wis.) and exon 2 or exon 3 of the Psmb5 genewere specifically amplified by PCR using the primers msPSMB5exon2_fwd ([…]), msPSMB5exon2_rev ([…]), msPSMB5exon3_fwd ([…]), and msPSMB5exon3_rev ([…]). The used PSMB5 transcript is PSMB5-202, transcript identification ID ENST00000361611.11, coding sequence: CCDS9584, as available on Ensemble Biomart database. Sanger sequencing was performed at Eurofins Genomics GmbH (Ebersberg, Germany).
(§1) Cell viability was analyzed using the XTT cell proliferation Kit II (Roche Diagnostics, Basel, Switzerland) according to the manufacturer's instructions. Drug treatment was started 24 h after cell seeding. The absorbance was measured after 72 h of treatment and normalized to the respective untreated control cells.

[2] = tested on: KMS-18 T21A mutant cell line; assay: XTT viability assay of KMS-18 multiple myeloma cell line with spontaneous PSMB5 T21A substitution; format: cell-based, human; conditions: KMS-18 T21A mutant cells, heterozygous
Description: as §1
KMS-18 and KMS-27 cells, having a wild type PSMB5 locus, were subjected to a 4-week selection on bortezomib without the use of mutagens.
Resistance of these two mutant cell lines to the different proteasome inhibitors was investigated using the XTT viability assay.

[3] = T21 substitutions, 15 nM carfilzomib or 75 nM oprozomib

## CC(C)C[C@H](NC(=O)[C@H](CCc1ccccc1)NC(=O)CN1CCOCC1)C(=O)N[C@@H](Cc1ccccc1)C(=O)N[C@@H](CC(C)C)C(=O)[C@@]1(C)CO1 [carfilzomib]
[1]; 15 nM carfilzomib, the different mutants
  resistance in cell viability assay: varying degrees of resistance; also recorded: highly variable
[1]; T21A substitution
  response in cell viability assay: hypersensitive
[1]; [3]
  response in cell viability assay: hypersensitivity
[1]; substitutions in positions C63, S130, or Y169
  response in cell viability assay (clustering, FIG. 12): partially maintained response
[2]
  response in XTT viability assay: sensitive

## COC[C@H](NC(=O)c1cnc(C)s1)C(=O)N[C@@H](COC)C(=O)N[C@@H](Cc1ccccc1)C(=O)[C@@]1(C)CO1 [oprozomib]
[1]; 75 nM oprozomib, the different mutants
  resistance in cell viability assay: varying degrees of resistance; also recorded: highly variable
[1]; T21A substitution
  response in cell viability assay: hypersensitive
[1]; [3]
  response in cell viability assay: hypersensitivity
[2]
  response in XTT viability assay: sensitive

## CC(C)C[C@H](NC(=O)CNC(=O)c1cc(Cl)ccc1Cl)B(O)O [ixazomib]
[1]; 50 nM ixazomib, all bortezomib resistant PSMB5 mutant cell lines
  resistance in cell viability assay: resistant
[1]; T21A substitution
  response in cell viability assay: resistance
[2]
  response in XTT viability assay: resistance

## CC(C)C[C@H](NC(=O)[C@H](Cc1ccccc1)NC(=O)c1cnccn1)B(O)O [bortezomib, [(1R)-3-Methyl-1-[[(2S)-1-oxo-3-phenyl-2-[(pyrazinylcarbonyl)amino]propyl]amino]butyl]boronic acid]
[1]; 10 nM bortezomib, 72 h, identified Psmb5 mutant clones vs WT
  resistance of mutant cell lines compared to the wildtype control (viability assay): up to 2 fold
[1]; T21A substitution
  response in cell viability assay: resistance
[2]
  response in XTT viability assay: resistance

— patent US20220145396A1, “METHOD OF IDENTIFYING PATIENTS WITH BORTEZOMIB RESISTANT MULTIPLE MYELOMA AND OTHER BLOOD DISEASES” (Max-Planck-Gesellschaft zur Förderung der Wissenschaften …, priority 2019, published 2022)
